Data as given in ChEMBL document CHEMBL1201862, “PubChem BioAssay data set” (2004).
Active and inactive are the calls of the source.

Tests used:
[1] = human group III sPLA2 inhibitors, dose response, biochemical, QFRET, IC50 (AID 743457);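 also: green fluorescence rise as the enzyme cleaves BODIPY PC-A2 in liposomes; potency for inhibition of the enzyme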
[2] = ADAM10 inhibitors, peptide cleavage, dose response, biochemical, QFRET (AID 743254);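 also: ADAM10 enzyme with the DM2 quenched FRET peptide as substrate; EDANS fluorescence gain as the protease cuts the substrate; inhibitor potency against ADAM10 proteolytic activity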
[3] = target: Disintegrin and metalloproteinase domain-containing protein 17 (Homo sapiens, UniProt P78536); assay: ADAM17 protease inhibitors, dose response, counter-screen for ADAM10 exosite inhibitor project, biochemical, quenched FRET substrate (AID 743253)
[4] = Luminescence Cell-Based Dose Retest to Confirm Inhibitors of Cancer Stem Cells. [Related pubchem assays (depositor defined):AID2717, AID2721]; type: functional; settings: Homo sapiens
[5] = target: T1, Long-chain-fatty-acid--AMP ligase FadD28 (Mycobacterium tuberculosis, UniProt P9WQ59); assay: Fluorescence polarization aasay to screen for inhibitors that compete for the binding of FadD28 to a bisubstrate Measured in Biochemical System Using Plate Reader - 2147-01_Inhibitor_Dose_CherryPick_Activity.; type: functional, Mycobacterium tuberculosis H37Rv
T1 sequence (P9WQ59 whole entry): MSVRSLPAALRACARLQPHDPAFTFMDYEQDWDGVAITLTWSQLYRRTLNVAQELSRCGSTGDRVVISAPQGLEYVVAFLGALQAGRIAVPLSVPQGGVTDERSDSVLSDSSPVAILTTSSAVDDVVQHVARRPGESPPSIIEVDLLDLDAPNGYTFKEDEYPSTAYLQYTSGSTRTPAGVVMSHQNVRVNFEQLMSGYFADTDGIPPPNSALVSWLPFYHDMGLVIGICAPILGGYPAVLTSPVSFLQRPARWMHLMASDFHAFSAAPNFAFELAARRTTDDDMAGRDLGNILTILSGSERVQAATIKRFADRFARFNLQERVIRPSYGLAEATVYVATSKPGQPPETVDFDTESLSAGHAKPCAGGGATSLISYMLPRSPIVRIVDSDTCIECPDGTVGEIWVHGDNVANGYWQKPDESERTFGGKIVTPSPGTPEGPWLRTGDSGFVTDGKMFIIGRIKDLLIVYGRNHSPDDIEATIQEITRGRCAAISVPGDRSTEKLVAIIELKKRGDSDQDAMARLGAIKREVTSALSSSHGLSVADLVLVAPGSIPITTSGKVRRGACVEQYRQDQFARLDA

[6] = target: Cytochrome P450 2C19 (Homo sapiens, UniProt P33261); assay: Cytochrome panel assay with activity outcomes. Panel member name: p450-cyp2c19 Compounds with AC50 equal or less than 10 uM are considered active; type: functional; settings: read-out: AC50
[7] = target: T2, Endoribonuclease toxin MazF (Escherichia coli K-12, UniProt P0AE70); assay: MazF toxin RNase activators, dose response, biochemical, fluorescence, single-stranded RNA substrate, uHTS hits (AID 588481); type: functional
T2 sequence (P0AE70 whole entry): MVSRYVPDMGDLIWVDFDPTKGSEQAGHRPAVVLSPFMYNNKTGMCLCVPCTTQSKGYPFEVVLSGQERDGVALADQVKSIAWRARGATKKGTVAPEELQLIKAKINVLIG

[8] = target: T2, Endoribonuclease toxin MazF; assay: fluorescent RNA oligo signal without MazF, dose response, counter-screen for MazEF activator project, biochemical, fluorescence, single-stranded RNase substrate (AID 588502); type: functional
[9] = target: T3, DNA repair protein RAD52 homolog (Homo sapiens, UniProt P43351); type: functional, biochemical
T3 sequence (P43351 whole entry): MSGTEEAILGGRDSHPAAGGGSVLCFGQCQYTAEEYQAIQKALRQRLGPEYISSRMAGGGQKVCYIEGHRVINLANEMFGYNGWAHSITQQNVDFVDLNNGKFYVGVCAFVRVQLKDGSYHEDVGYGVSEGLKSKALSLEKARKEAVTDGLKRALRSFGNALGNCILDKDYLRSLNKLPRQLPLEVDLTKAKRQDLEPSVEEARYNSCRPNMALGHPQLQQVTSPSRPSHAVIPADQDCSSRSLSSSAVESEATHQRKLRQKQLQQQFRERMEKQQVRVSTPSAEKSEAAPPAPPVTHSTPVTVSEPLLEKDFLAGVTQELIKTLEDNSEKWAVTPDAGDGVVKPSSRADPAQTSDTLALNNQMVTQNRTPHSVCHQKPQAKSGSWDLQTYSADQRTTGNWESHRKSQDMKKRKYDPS

[10] = tested on: Streptococcus sp. 'group A'; assay: growth inhibition of control SK(-) GAS strain, dose response, counter-screen for streptokinase expression inhibitor project, luminescence, kanamycin, BacTiterGlo, confirmation (AID 1900); type: functional, organism-based
[11] = target: T4, Streptokinase A (Streptococcus pyogenes serotype M1, UniProt P10520); assay: S. pyogenes streptokinase expression inhibitors, potency, dose response, plasminogen activation absorbance, OD405 (AID 1914); type: functional, Streptococcus pyogenes M1 GAS;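 also: secreted streptokinase activity via plasminogen activation per viability signal from cell pellet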
T4 sequence (P10520 whole entry): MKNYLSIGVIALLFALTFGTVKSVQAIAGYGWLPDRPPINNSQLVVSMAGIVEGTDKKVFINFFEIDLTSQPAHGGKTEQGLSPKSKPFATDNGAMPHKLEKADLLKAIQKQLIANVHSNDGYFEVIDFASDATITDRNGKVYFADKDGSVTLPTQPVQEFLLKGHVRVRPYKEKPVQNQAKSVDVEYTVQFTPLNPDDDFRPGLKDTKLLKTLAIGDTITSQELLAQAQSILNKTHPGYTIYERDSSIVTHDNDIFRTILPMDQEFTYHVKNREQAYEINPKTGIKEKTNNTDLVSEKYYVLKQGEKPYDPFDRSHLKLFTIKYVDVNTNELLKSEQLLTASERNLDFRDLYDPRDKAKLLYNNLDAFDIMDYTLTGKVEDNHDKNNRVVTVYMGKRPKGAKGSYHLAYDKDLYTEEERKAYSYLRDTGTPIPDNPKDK

[12] = tested on: Streptococcus; assay: Group A Streptococcus viability loss, dose response, counter-screen for streptokinase expression inhibitor project, luminescence, BacTiterGlo (AID 1915); type: functional, organism-based;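 also: potency for reduction of bacterial viability or growth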
[13] = target: T5, Replicative DNA helicase DnaB (Mycobacterium tuberculosis, UniProt P9WMR3); assay: DnaB intein splicing inhibitors, dose response, biochemical, cell-free fluorescence (AID 449749); type: functional
T5 sequence (P9WMR3 whole entry): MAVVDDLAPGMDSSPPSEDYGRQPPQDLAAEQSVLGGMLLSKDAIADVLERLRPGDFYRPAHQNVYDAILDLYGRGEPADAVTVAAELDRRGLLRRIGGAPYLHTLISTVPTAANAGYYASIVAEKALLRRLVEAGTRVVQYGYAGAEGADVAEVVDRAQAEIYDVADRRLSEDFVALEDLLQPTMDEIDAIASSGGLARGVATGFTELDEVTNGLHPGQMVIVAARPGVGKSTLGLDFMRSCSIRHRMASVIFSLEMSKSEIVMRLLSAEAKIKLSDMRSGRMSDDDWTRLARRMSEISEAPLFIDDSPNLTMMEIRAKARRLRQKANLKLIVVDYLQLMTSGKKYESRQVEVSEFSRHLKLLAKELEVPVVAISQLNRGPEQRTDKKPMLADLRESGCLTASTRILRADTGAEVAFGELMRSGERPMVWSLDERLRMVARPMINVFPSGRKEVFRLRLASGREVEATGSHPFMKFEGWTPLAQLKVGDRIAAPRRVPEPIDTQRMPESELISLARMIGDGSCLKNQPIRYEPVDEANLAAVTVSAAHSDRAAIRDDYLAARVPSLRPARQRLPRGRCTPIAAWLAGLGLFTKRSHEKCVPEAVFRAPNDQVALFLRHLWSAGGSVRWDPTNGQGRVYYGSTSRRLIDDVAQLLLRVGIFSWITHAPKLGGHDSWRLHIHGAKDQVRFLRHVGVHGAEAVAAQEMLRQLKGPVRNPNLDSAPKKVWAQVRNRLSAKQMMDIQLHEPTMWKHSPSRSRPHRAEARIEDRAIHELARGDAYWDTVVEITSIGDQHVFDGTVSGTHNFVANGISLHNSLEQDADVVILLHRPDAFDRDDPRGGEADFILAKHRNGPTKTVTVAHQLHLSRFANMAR

[14] = target: T6, Protein RecA (Mycobacterium tuberculosis, UniProt P9WHJ3); assay: Fluorescence Cell-Free Homogeneous Dose Retest to Identify Inhibitors of RecA-Intein Splicing Activity. [Related pubchem assays (depositor defined):AID2097, AID2223, AID489010, AID492950]; type: functional
T6 sequence (P9WHJ3 whole entry): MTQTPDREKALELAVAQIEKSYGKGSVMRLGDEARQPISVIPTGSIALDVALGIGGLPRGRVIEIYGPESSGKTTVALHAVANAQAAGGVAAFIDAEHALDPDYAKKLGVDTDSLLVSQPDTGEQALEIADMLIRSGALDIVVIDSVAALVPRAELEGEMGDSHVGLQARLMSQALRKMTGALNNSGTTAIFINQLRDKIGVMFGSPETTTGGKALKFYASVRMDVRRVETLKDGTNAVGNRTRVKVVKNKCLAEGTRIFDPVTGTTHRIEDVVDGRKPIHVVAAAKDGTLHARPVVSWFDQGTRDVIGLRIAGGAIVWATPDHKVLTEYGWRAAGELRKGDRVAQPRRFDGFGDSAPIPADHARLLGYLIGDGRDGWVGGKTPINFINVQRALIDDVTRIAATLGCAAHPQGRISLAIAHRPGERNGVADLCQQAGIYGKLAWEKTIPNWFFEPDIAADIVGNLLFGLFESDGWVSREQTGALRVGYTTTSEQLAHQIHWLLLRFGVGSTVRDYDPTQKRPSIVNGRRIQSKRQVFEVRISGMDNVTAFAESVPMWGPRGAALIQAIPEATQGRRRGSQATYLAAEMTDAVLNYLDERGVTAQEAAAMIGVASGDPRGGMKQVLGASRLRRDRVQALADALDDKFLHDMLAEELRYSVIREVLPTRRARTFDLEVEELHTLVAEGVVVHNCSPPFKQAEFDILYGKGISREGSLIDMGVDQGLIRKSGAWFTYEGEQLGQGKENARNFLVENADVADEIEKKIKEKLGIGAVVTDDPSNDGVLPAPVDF

[15] = target: Paired box protein Pax-8 (Homo sapiens, UniProt Q06710); assay: inhibitors of PAX8-driven TPO luciferase reporter, dose response, RMG-I cells, cherry-pick (AID 687027); type: functional, cell-based;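 also: luciferase reporter driven by Pax8 target thyroperoxidase promoter measured by SteadyGlo luminescence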
[16] = A2780 ovarian cancer cell cytotoxicity, dose response, cytotoxicity control, plate reader, dry powder samples (AID 743046); type: functional, cell-based
[17] = NIH:OVCAR-3 ovarian cancer cell cytotoxicity, dose response, PAX8 inhibitor project, plate reader, dry powder samples (AID 743044); type: functional, cell-based
[18] = IGROV1 ovarian cancer cell cytotoxicity, dose response, PAX8 inhibitor project, plate reader, dry powder samples (AID 743043); type: functional, cell-based; settings: IGROV-1
[19] = cytotoxicity in OVCAR8 ovarian cancer cells, dose response, PAX8 project, cell-based, plate reader, dry powder samples (AID 743197); type: functional; settings: OVCAR-8
[20] = target: T7, Caspase-6 (Homo sapiens, UniProt P55212); assay: human caspase-6 inhibitors, dose response, biochemical, VEID-R110 fluorescence, cherry-pick (AID 720632)
T7 sequence (P55212 whole entry): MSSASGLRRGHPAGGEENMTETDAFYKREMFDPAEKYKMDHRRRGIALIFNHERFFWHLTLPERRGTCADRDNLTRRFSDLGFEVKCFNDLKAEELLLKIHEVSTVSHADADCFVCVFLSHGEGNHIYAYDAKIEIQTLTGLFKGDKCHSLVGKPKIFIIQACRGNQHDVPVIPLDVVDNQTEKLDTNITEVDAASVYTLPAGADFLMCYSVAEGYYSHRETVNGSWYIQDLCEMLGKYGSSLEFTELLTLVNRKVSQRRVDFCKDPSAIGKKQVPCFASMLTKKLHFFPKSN

Paired box protein Pax-8, sequence (Q06710 whole entry): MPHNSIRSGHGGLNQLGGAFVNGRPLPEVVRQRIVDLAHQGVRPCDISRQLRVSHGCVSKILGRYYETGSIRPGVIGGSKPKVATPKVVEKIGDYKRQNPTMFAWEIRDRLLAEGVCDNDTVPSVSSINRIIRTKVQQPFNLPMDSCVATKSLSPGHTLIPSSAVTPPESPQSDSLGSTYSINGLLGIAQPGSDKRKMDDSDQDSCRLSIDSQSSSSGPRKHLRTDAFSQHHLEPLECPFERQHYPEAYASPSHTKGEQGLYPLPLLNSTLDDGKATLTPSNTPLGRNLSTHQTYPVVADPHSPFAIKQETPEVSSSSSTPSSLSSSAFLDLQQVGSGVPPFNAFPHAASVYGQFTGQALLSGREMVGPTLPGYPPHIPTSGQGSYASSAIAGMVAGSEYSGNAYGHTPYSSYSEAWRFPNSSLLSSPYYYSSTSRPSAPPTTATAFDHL
Disintegrin and metalloproteinase domain-containing protein 17, sequence (P78536 whole entry, the tested form may be a part): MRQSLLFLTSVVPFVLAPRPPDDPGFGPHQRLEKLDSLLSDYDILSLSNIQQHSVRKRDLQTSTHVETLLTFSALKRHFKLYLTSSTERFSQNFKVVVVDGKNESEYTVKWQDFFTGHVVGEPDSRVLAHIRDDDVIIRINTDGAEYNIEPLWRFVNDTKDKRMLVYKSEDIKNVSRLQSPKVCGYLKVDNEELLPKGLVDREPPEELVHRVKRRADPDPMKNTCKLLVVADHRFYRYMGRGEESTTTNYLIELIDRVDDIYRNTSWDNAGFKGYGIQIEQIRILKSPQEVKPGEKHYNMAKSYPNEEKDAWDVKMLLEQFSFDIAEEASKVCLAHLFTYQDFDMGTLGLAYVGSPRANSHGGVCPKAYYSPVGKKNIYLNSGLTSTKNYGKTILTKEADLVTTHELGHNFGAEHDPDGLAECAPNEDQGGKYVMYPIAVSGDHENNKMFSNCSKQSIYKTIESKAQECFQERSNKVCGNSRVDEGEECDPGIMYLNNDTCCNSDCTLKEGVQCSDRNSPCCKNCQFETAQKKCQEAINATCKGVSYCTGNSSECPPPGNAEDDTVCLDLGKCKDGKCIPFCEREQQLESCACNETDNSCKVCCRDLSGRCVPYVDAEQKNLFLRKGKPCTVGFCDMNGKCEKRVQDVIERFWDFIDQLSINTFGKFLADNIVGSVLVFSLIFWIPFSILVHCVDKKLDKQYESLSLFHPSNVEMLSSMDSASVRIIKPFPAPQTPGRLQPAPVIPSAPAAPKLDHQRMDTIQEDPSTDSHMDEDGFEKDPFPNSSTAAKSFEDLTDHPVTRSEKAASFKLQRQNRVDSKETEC
Cytochrome P450 2C19, sequence (P33261 whole entry): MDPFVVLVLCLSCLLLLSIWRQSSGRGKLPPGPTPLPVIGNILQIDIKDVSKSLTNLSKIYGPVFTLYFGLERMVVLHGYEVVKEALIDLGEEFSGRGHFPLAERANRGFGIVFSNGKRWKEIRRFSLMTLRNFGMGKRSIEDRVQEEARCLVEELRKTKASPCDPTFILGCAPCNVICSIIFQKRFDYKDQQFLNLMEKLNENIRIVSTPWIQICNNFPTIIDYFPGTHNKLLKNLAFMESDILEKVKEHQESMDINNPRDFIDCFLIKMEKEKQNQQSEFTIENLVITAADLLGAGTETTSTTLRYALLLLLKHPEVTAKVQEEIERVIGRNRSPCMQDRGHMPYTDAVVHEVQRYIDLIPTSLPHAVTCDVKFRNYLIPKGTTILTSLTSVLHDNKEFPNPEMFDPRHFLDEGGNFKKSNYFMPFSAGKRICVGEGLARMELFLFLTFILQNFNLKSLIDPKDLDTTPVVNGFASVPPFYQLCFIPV

O=C(NN=C(S)NC1CCCCC1)c1ccccc1O
IC50 [1]: > 122 µM (inactive)

Cc1ccc(-n2c(SCC(=O)Nc3cccc(S(N)(=O)=O)c3)nc3ccccc32)cc1
IC50 [2]: > 69.5 µM (inactive) | IC50 [3]: > 69.5 µM (inactive)

O=C(N=CNOCc1ccc(Cl)cc1Cl)NOCc1ncc(C(F)(F)F)cc1Cl
AC50 [4]: 4.02 µM (active) | IC50 [2]: 12.9 µM (inactive)

O=C(NC=NOCc1ccc(Cl)cc1Cl)NOCc1ncc(C(F)(F)F)cc1Cl
IC50 [3]: > 69.5 µM (inactive)

O=C(NNC(=S)NC(=O)c1ccccc1[N+](=O)[O-])c1ccccc1Cl
IC50 [1]: 115 µM (inactive)

Cc1ccccc1OCC(=O)NNC(=S)NC(=O)c1ccccc1[N+](=O)[O-]
IC50 [1]: 64.9 µM (inactive)

CN(c1ccc(C(=O)NCCSCc2ccccc2)cc1)S(=O)(=O)c1ccccc1
AC50 [5]: > 100 µM (inactive)

CN(C)CCCn1c2c3ccccc3ccc2c2oc(=O)c3ccccc3c21
AC50 [6]: 0.794 µM (inconclusive) | EC50 [7]: > 99 µM (inactive) | EC50 [8]: > 99 µM (inactive) | AC50 [9]: < 0.681 µM (active)

Cc1ccc(N/C(C(Cl)=C(Cl)Cl)=C(/Cl)[N+](=O)[O-])c(C)c1
AC50 [5]: > 100 µM (inactive)

CC(C)C[C@H](NC(=O)c1[nH]cnc1C(=O)NC(c1ccccc1)c1ccccc1)C(=O)OCc1ccccc1
IC50 [2]: 19.4 µM (inactive)

CC(C)C[C@H](NC(=O)c1nc[nH]c1C(=O)NC(c1ccccc1)c1ccccc1)C(=O)OCc1ccccc1
IC50 [3]: > 69.5 µM (inactive)

CC1=NN(c2nc(-c3ccccc3)cs2)C(=O)C1
EC50 [10]: 16.9 µM (active) | EC50 [11]: 10 µM (active) | EC50 [12]: > 150 µM (not active) | AC50 [13]: 7.99 µM (active) | EC50 [14]: 6.75 µM (active) | AC50 [5]: > 100 µM (inactive)

Cc1ccc2c(c1)NC(=O)[C@@]1(C)[C@@H](c3ccccc3)[C@H]3COc4ccccc4[C@@H]3N1C2=O
IC50 [2]: > 69.5 µM (inactive) | IC50 [3]: > 69.5 µM (inactive)

C[C@H]1CN([C@@H](C)CO)C(=O)c2cc(NS(=O)(=O)c3ccccc3)ccc2O[C@@H]1CN(C)Cc1ccc(Oc2ccccc2)cc1
AC50 [15]: 15.7 µM (active) | AC50 [16]: 8.52 µM (active)

C[C@@H]1CCCCO[C@H](CN(C)Cc2ccc(C(F)(F)F)cc2)[C@H](C)CN([C@H](C)CO)C(=O)c2cc(NC(=O)Cc3ccccc3)ccc2O1
AC50 [15]: 6.16 µM (active) | AC50 [17]: 26.8 µM (active) | AC50 [18]: 43.9 µM (active) | AC50 [19]: 34.7 µM (active)

C[C@@H]1CCCCO[C@@H](CN(C)C(=O)NC2CCCCC2)[C@H](C)CN([C@@H](C)CO)C(=O)c2cc(NC(=O)Nc3ccc(C(F)(F)F)cc3)ccc2O1
AC50 [15]: 3.5 µM (active) | AC50 [16]: 5.99 µM (active) | AC50 [17]: 38 µM (active) | AC50 [19]: 47.1 µM (active)

CC(=O)Nc1cccc2cc(S(=O)(=O)O)ccc12
AC50 [20]: 15.6 µM (active)
